Our source for the IC50 values is patent US20210040118A1, “IMMUNOMODULATORS, COMPOSITIONS AND METHODS THEREOF” (BETTA PHARMACEUTICALS CO., LTD, priority 2018, published 2021).

Bounds are passed on as bounds.

T1 sequence (Q9NZQ7 19-238): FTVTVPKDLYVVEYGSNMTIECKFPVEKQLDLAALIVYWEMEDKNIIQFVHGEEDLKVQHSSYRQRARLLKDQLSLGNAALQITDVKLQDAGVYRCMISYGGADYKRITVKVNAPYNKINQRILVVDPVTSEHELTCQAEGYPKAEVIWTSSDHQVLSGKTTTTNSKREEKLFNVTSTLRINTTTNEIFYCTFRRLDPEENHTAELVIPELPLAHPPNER

This experiment addresses T1, PD-1/PD-L1 (Homo sapiens, UniProt Q9NZQ7).
T1 construct: Recombinant human PD-L1 protein (19-238) with a His-tag at the C-terminus; purchased AcroBiosystems PD1-H5229 (PD-L1); PD1-H5257 (PD-1)
Description: PD-1/PD-L1 homogenous time-resolved fluorescence (HTRF) binding assay. Conditions: recombinant human PD-L1 (19-238) His-tag / human PD-1 (25-167) Fc tag, class symbols. The gist of the method: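 HTRF binding of human PD-1 (25-167, Fc-tagged) at 3 nM and PD-L1 (19-238, His-tagged) at 10 nM, preincubated 40 min with inhibitor in PBS pH 7.4, 0.05% Tween-20, 0.1% BSA, 1% DMSO, 25°C. Eu anti-IgG (1 nM) and anti-His-APC (20 nM) added, 60 min; 665/620 nm ratio; IC50 from curve fit.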
Background: Time-resolved FRET reads energy transfer from a long-lived donor to a nearby acceptor.
For `O=C(Nc1cccc(-c2cccc(NC(=O)c3ncc(CN4C[C@H](O)C[C@H]4C(=O)O)s3)c2Cl)c1Cl)c1ncc(CN2C[C@H](O)C[C@H]2C(=O)O)s1` [Example 67, (2S,2'S,4R,4′R)-1,1′-(((((2,2′-dichloro-[1,1′-biphenyl]-3,3′-diyl)bis(azanediyl))bis(carbonyl))bis(thiazole-2,5-diyl))bis(methylene))bis(4-hydroxypyrrolidine-2-carboxylic acid)], the IC50 was less than 25 nM.
In the case of `O=C(Nc1cccc(-c2cccc(NC(=O)c3ncc(CNCC(F)(F)F)s3)c2Cl)c1Cl)c1ncc(CNCC(F)(F)F)s1` [Example 68, N,N′-(2,2′-dichloro-[1,1′-biphenyl]-3,3′-diyl)bis(5-(((2,2,2-trifluoroethyl)amino)methyl)thiazole-2-carboxamide)], the IC50 is less than 25 nM.
Take `CC(C)[C@H](NCc1cnc(C(=O)Nc2cccc(-c3cccc(NC(=O)c4ncc(CN[C@H](C(=O)O)C(C)C)s4)c3Cl)c2Cl)s1)C(=O)O` [Example 69, ((2-((3′-(5-((((S)-1-carboxy-2-methylpropyl)amino)methyl)thiazole-2-carboxamido)-2,2′-dichloro-[1,1′-biphenyl]-3-yl)carbamoyl)thiazol-5-yl)methyl)-L-valine]: the IC50 was less than 25 nM.
With `O=C(c1ncc(CNCCO)s1)N1CCc2c(-c3cccc4c3CCN4C(=O)c3ncc(CNCCO)s3)cccc21` [Example 70, [4,4′-biindoline]-1,1′-diylbis((5-(((2-hydroxyethyl)amino)methyl)thiazol-2-yl)methanone)], the IC50 is less than 25 nM.
The figure for `O=C(Nc1cccc(-c2cccc(NC(=O)c3ncc(CN[C@H](C(=O)O)C4CCOCC4)s3)c2Cl)c1Cl)c1ncc(CN[C@H](C(=O)O)C2CCOCC2)s1` [Example 71, (2S,2'S)-2,2′-((((((2,2′-dichloro-[1,1′-biphenyl]-3,3′-diyl)bis(azanediyl))bis(carbonyl))bis(thiazole-2,5-diyl))bis(methylene))bis(azanediyl))bis(2-(tetrahydro-2H-pyran-4-yl)acetic acid)] is less than 25 nM; for `Cc1c(NC(=O)c2ncc(CN3CCCC[C@H]3C(=O)O)s2)cccc1-c1cccc2c1CCN2C(=O)c1ncc(CN2CCCC[C@H]2C(=O)O)s1` [Example 72, (S)-1-((2-((3-(1-(5-(((S)-2-carboxypiperidin-1-yl)methyl)thiazole-2-carbonyl)indolin-4-yl)-2-methylphenyl)carbamoyl)thiazol-5-yl)methyl)piperidine-2-carboxylic acid] it is less than 25 nM.
`Cc1c(NC(=O)c2nnc(CNCCO)s2)cccc1-c1cccc(NC(=O)c2nnc(CNCCO)s2)c1C` [Example 73, N,N′-(2,2′-dimethyl-[1,1′-biphenyl]-3,3′-diyl)bis(5-(((2-hydroxyethyl)amino)methyl)-1,3,4-thiadiazole-2-carboxamide)]: the IC50 was less than 25 nM.
The figure for `N#Cc1c(NC(=O)c2nc3c(s2)CNCC3)cccc1-c1cccc(NC(=O)c2nc3c(s2)CNCC3)c1C#N` [Example 74, N,N′-(2,2′-dicyano-[1,1′-biphenyl]-3,3′-diyl)bis(4,5,6,7-tetrahydrothiazolo[5,4-c]pyridine-2-carboxamide)] is less than 25 nM; for `Cc1c(NC(=O)c2nc3c(s2)CN(Cc2ccc(Cl)c(Cl)c2)CC3)cccc1-c1cccc(NC(=O)c2nc3c(s2)CN(Cc2ccc(Cl)c(Cl)c2)CC3)c1C` [Example 75, N,N′-(2,2′-dimethyl-[1,1′-biphenyl]-3,3′-diyl)bis(5-(3,4-dichlorobenzyl)-4,5,6,7-tetrahydrothiazolo[5,4-c]pyridine-2-carboxamide)] it is 100 to 200 nM.
The figure for `Cc1c(NC(=O)c2nc3c(s2)CN(CC(C)(C)CO)CC3)cccc1-c1cccc(NC(=O)c2nc3c(s2)CN(CC(C)(C)CO)CC3)c1C` [Example 76, N,N′-(2,2′-dimethyl-[1,1′-biphenyl]-3,3′-diyl)bis(5-(3-hydroxy-2,2-dimethylpropyl)-4,5,6,7-tetrahydrothiazolo[5,4-c]pyridine-2-carboxamide)] is less than 25 nM.
The figure for `Cc1c(NC(=O)c2nc3c(s2)CN(C(C)C)CC3)cccc1-c1cccc(NC(=O)c2nc3c(s2)CN(C(C)C)CC3)c1C` [Example 77, N,N′-(2,2′-dimethyl-[1,1′-biphenyl]-3,3′-diyl)bis(5-isopropyl-4,5,6,7-tetrahydrothiazolo[5,4-c]pyridine-2-carboxamide)] is 25 to 100 nM; for `Cc1c(NC(=O)c2nc3c(s2)CN(CCCC(=O)O)CC3)cccc1-c1cccc(NC(=O)c2nc3c(s2)CN(CCCC(=O)O)CC3)c1C` [Example 78, 4,4′-((((2,2′-dimethyl-[1,1′-biphenyl]-3,3′-diyl)bis(azanediyl))bis(carbonyl))bis(6,7-dihydrothiazolo[5,4-c]pyridine-2,5(4H)-diyl))dibutyric acid] it is less than 25 nM.
Regarding `Cc1c(NC(=O)c2nc3c(s2)CN(C(C)C(=O)O)CC3)cccc1-c1cccc(NC(=O)c2nc3c(s2)CN(C(C)C(=O)O)CC3)c1C` (centres unmarked) [Example 79, 2,2′-((((2,2′-dimethyl-[1,1′-biphenyl]-3,3′-diyl)bis(azanediyl))bis(carbonyl))bis(6,7-dihydrothiazolo[5,4-c]pyridine-2,5(4H)-diyl))dipropionic acid], the IC50 was less than 25 nM.
As to `Cc1c(NC(=O)c2nc3c(s2)CN(CC#N)CC3)cccc1-c1cccc(NC(=O)c2nc3c(s2)CN(CC#N)CC3)c1C` [Example 80, N,N′-(2,2′-dimethyl-[1,1′-biphenyl]-3,3′-diyl)bis(5-(cyanomethyl)-4,5,6,7-tetrahydrothiazolo[5,4-c]pyridine-2-carboxamide)], the IC50 is less than 25 nM.
The figure for `Cc1c(NC(=O)c2nc3c(s2)CN(CCCN2CCOCC2)CC3)cccc1-c1cccc(NC(=O)c2nc3c(s2)CN(CCCN2CCOCC2)CC3)c1C` [Example 81, N,N′-(2,2′-dimethyl-[1,1′-biphenyl]-3,3′-diyl)bis(5-(3-morpholinopropyl)-4,5,6,7-tetrahydrothiazolo[5,4-c]pyridine-2-carboxamide)] is less than 25 nM.
Turning to `Cc1c(NC(=O)c2nc3c(s2)CN(CCO)CC3)cccc1-c1cccc(NC(=O)c2nc3c(s2)CN(CCO)CC3)c1C` [Example 82, N,N′-(2,2′-dimethyl-[1,1′-biphenyl]-3,3′-diyl)bis(5-(2-hydroxyethyl)-4,5,6,7-tetrahydrothiazolo[5,4-c]pyridine-2-carboxamide)], the IC50 was less than 25 nM.
As to `CN1CCc2nc(C(=O)N3CCc4c(-c5cccc6c5CCN6C(=O)c5nc6c(s5)CN(C)CC6)cccc43)sc2C1` [Example 83, [4,4′-biindoline]-1,1′-diylbis((5-methyl-4,5,6,7-tetrahydrothiazolo[5,4-c]pyridin-2-yl)methanone)], the IC50 is less than 25 nM.
Consider `O=C(c1nc2c(s1)CN(CC(F)(F)F)CC2)N1CCc2c(-c3cccc4c3CCN4C(=O)c3nc4c(s3)CN(CC(F)(F)F)CC4)cccc21` [Example 84, [4,4′-biindoline]-1,1′-diylbis((5-(2,2,2-trifluoroethyl)-4,5,6,7-tetrahydrothiazolo[5,4-c]pyridin-2-yl)methanone)], for which the IC50 lay within 25 to 100 nM.
For the compound `O=C(c1nc2c(s1)CN(CC(F)F)CC2)N1CCc2c(-c3cccc4c3CCN4C(=O)c3nc4c(s3)CN(CC(F)F)CC4)cccc21` [Example 85, [4,4′-biindoline]-1,1′-diylbis((5-(2,2-difluoroethyl)-4,5,6,7-tetrahydrothiazolo[5,4-c]pyridin-2-yl)methanone)], the IC50 is 25 to 100 nM.
With `O=C(c1nc2c(s1)CN(CCF)CC2)N1CCc2c(-c3cccc4c3CCN4C(=O)c3nc4c(s3)CN(CCF)CC4)cccc21` [Example 87, [4,4′-biindoline]-1,1′-diylbis((5-(2-fluoroethyl)-4,5,6,7-tetrahydrothiazolo[5,4-c]pyridin-2-yl)methanone)], the IC50 is less than 25 nM.
Turning to `O=C(c1nc2c(s1)CN(C1COC1)CC2)N1CCc2c(-c3cccc4c3CCN4C(=O)c3nc4c(s3)CN(C3COC3)CC4)cccc21` [Example 88, [4,4′-biindoline]-1,1′-diylbis((5-(oxetan-3-yl)-4,5,6,7-tetrahydrothiazolo[5,4-c]pyridin-2-yl)methanone)], the IC50 was less than 25 nM.
`O=C(Nc1cccc(-c2cccc(NC(=O)c3nc4c(s3)CNCC4)c2Cl)c1Cl)c1nc2c(s1)CNCC2` [Example 89, N,N′-(2,2′-dichloro-[1,1′-biphenyl]-3,3′-diyl)bis(4,5,6,7-tetrahydrothiazolo[5,4-c]pyridine-2-carboxamide)]: the IC50 is less than 25 nM.
Consider `NC(=O)CN1CCc2nc(C(=O)Nc3cccc(-c4cccc(NC(=O)c5nc6c(s5)CN(CC(N)=O)CC6)c4Cl)c3Cl)sc2C1` [Example 90, N,N′-(2,2′-dichloro-[1,1′-biphenyl]-3,3′-diyl)bis(5-(2-amino-2-oxoethyl)-4,5,6,7-tetrahydrothiazolo[5,4-c]pyridine-2-carboxamide)], for which the IC50 was less than 25 nM.
As to `O=C(Nc1cccc(-c2cccc(NC(=O)c3nc4c(s3)CN(CCO)CC4)c2Cl)c1Cl)c1nc2c(s1)CN(CCO)CC2` [Example 91, N,N′-(2,2′-dichloro-[1,1′-biphenyl]-3,3′-diyl)bis(5-(2-hydroxyethyl)-4,5,6,7-tetrahydrothiazolo[5,4-c]pyridine-2-carboxamide)], the IC50 was less than 25 nM.
`O=C(Nc1cccc(-c2cccc(NC(=O)c3nc4c(s3)CN(C3COC3)CC4)c2Cl)c1Cl)c1nc2c(s1)CN(C1COC1)CC2` [Example 92, N,N′-(2,2′-dichloro-[1,1′-biphenyl]-3,3′-diyl)bis(5-(oxetan-3-yl)-4,5,6,7-tetrahydrothiazolo[5,4-c]pyridine-2-carboxamide)]: the IC50 was less than 25 nM.
`Cc1c(NC(=O)c2nc3c(s2)CNCC3)cc(Cl)cc1-c1cc(Cl)cc(NC(=O)c2nc3c(s2)CNCC3)c1C` [Example 93, N,N′-(5,5′-dichloro-2,2′-dimethyl-[1,1′-biphenyl]-3,3′-diyl)bis(4,5,6,7-tetrahydrothiazolo[5,4-c]pyridine-2-carboxamide)]: the IC50 was less than 25 nM.

Broadly, the IC50 is the concentration that inhibits the measured activity by half.
